This is an account of results in patent US5250537A, “5,6,7,8,9,10-hexahydro-7 ,10-iminocyclohept[b]indole,-6,7,8,9,10-hexahydro-7,11-imino-5H-cyclooct[ b]indole and substituted derivatives” (Scios Nova Inc., priority 1992, dated 1993).

Like-named read-outs stand apart in the source and are kept apart here.

Test [1] addresses T1, serotonin 5-HT2 receptors (Rattus norvegicus, UniProt P14842).
T1 construct: Rat cortical synaptosomal membranes were prepared on the day of assay; from tissue; host or cells: rat frontal cortex synaptosomal membranes
In words: In Vitro Serotonin (5-HT2) Receptor Binding, [3H]ketanserin. The following applies: for Ki: rat cortical membranes, 1 nM [3H]ketanserin. How it is done:
The potency of compounds to inhibit the specific binding of [^3 H]ketanserin (84.2 Ci/mM) to serotonin 5-HT2 receptors was determined as detailed previously [J. E. Leysen, C. J. E. Niemegers, J. M. Van Neuten and P. M. Laduron, Mol. Pharmacol., 21, 301-314 (1982)]. Rat cortical synaptosomal membranes were prepared on the day of assay. Animals were sacrified by decapitation, the frontal cortex was removed and homogenized in 10 volumes (w/v) of ice-cold 0.32M sucrose using a motor driven teflon pestle fitted to a glass tube. The synaptosomal pellet was suspended in 50 mM Tris HCl (pH 7.6 at 25° C.) to a concentration of 7.5 mg original wet weight/mL. For the binding reaction, 400 μL of this tissue suspension was added to polypropylene tubes containing 50 mM Tris HCl and [^3 H]ketanserin (final concentration of 1 nM) in a final assay volume of 0.5 mL. Following a 15 minute incubation at 37° C., the binding reaction was terminated by rapid vacuum filtration over Whatman GF/B filters (presoaked in 0.1% PEI) followed by 3×4 mL washes with ice cold 50 mM Tris HCl. Nonspecific binding was assessed in the presence of 10 μM methysergide. All incubations were performed in triplicate. IC50 values were determined using log logit analysis.

For the next test, the target named is T2, dopamine (D-2) receptors (Rattus norvegicus, UniProt P61169).
T2 construct: the corpus striatum was dissected and homogenized; from tissue; host or cells: rat corpus striatum membranes
T2 sequence (P61169 whole entry): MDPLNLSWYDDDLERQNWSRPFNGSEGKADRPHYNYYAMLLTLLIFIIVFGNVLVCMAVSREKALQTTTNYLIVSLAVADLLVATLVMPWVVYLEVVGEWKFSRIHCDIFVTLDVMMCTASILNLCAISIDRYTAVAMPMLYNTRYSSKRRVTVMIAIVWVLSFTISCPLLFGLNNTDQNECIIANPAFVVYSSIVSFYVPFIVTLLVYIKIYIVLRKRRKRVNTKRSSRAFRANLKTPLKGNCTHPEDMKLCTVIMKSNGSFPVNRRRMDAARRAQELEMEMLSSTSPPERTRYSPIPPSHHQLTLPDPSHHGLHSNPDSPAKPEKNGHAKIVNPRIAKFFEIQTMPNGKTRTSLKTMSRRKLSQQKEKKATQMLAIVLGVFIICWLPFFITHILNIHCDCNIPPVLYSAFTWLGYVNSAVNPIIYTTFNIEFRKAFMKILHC
In words: In Vitro Dopamine (D-2) Receptor Binding, [3H]sulpiride. How it is done: On the day of assay, rats were sacrificed by decapitation, the corpus striatum was dissected and homogenized in 20 volumes of ice-cold 50 mM Tris HCl (pH 7.5, 25° C.). The homogenate was centrifuged (4° C.) at 48,000×g for 10 minutes and the resulting pellet was resuspended in 20 volumes of fresh buffer and recentrifuged. […] A portion of the suspension (800 μL) was added in triplicate to tubes containing 3 nM [^3 H]sulpiride and the test compound. The final assay volume was 1 mL; haloperidol (10 μM) was used to determine non-specific binding. Following a 60 minute incubation at 25° C., the reactions were terminated by rapid filtration over Whatman GF/B filters which had been pretreated in a solution of 0.3% (w/v) of aqueous polyethylenimine. Filters were washed three times using 5 mL of ice-cold buffer and processed using standard procedures to determine radioactivity. IC50 values were obtained from concentration-response curves in which a number of concentrations of test compound were examined. Ki values were determined using the Cheng-Prusoff equation.

Where [2] appears, read: rat corpus striatum, 3 nM [3H]sulpiride, read-out: Dopamine D-2 [3H]sulpiride Ki.
The mark [3] stands for this setting: read-out: Serotonin 5-HT2 [3H]ketanserin, % @ 1 μM.
Where [4] appears, read: read-out: Serotonin 5-HT2 [3H]ketanserin, value @ 1 μM.
Setting [5] is: read-out: Dopamine D-2 [3H]sulpiride Ki.
The mark [6] stands for this setting: Dopamine D-2 [3H]sulpiride Ki, rat corpus striatum, 3 nM [3H]sulpiride.

T1 sequence (P14842 whole entry): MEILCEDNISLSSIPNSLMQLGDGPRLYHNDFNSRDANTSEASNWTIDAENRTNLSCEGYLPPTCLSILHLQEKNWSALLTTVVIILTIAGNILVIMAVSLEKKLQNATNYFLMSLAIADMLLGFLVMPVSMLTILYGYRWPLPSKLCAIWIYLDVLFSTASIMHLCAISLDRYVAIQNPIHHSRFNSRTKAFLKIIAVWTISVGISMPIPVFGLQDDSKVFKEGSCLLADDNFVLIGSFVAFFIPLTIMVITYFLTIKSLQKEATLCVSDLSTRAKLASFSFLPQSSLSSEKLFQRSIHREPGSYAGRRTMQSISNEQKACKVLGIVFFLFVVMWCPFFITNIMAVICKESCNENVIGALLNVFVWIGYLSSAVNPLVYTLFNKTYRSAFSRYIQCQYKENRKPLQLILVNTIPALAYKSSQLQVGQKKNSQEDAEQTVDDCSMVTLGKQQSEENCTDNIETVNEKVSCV

For orientation: Ki means a dissociation constant, usually derived from enzyme kinetics or from competition with a known ligand. The compound `Fc1ccc(OCCCN2C3CCC2c2c([nH]c4ccccc24)C3)cc1` (centres unmarked) [1 H H (CH2)3 O-4-FPh 2] returned a Ki in test [1] of 11.4 nM. In the case of `O=C(CCCN1C2CCC1c1c([nH]c3ccccc13)C2)c1ccc(F)cc1` (centres unmarked) [1 H H (CH2)3 CO 4-FPh 2], the Ki in test [1] came to 0.82 nM; on dopamine (D-2) receptors (setting [2]) it was 280 nM. As for `Clc1ccc(CCN2C3CCC2c2c([nH]c4ccccc24)C3)cc1Cl` (centres unmarked) [1 H H (CH2)2 3,4-Cl2 Ph 2], in test [1] (setting [3]), the inhibition at 1 µM stood at 6.7%. The Ki on dopamine (D-2) receptors (setting [2]) is 3430 nM. As to `Fc1ccc2[nH]c3c(c2c1)C1CCC(C3)N1CCCN1Cc2ccccc2C1` (centres unmarked) [7 F H (CH2)3 2-isoindolinyl 2], the inhibition at 1 µM in test [1] (setting [4]) was 72.2%. Also, the Ki on dopamine (D-2) receptors (setting [2]) was 1780 ± 630 nM. On to `Fc1ccc2[nH]c3c(c2c1)C1CCC(C3)N1CCCCc1ccccc1` (centres unmarked) [4 F H (CH2)4 Ph 2], for which the results for the Ki (in test [1]; at dopamine (D-2) receptors (setting [5])) were 74 nM and 770 nM, respectively. In the case of `O=C1c2ccccc2C(=O)N1CCN1C2CCC1c1c([nH]c3ccccc13)C2` (centres unmarked) [6 H H (CH2)2 2-phthalimido 2], in test [1] (setting [4]), the inhibition at 1 µM is 5.3%. At dopamine (D-2) receptors (setting [2]), the Ki is 52100 nM. For `c1ccc2c(c1)CN(CCN1C3CCC1c1c([nH]c4ccccc14)C3)C2` (centres unmarked) [7 H H (CH2)2 2-isoindolinyl 2], in that order: 55.1% and 2200 ± 180 nM.

With `CN(CCc1ccc(Cl)c(Cl)c1)CCN1C2CCC1c1c([nH]c3ccccc13)C2` (centres unmarked) [9 H H (CH2)2 N(CH3)CH2 CH2-3,4-Cl2 Ph 2], the inhibition at 1 µM in test [1] (setting [4]) worked out at 34.7%. Moreover, the Ki at dopamine (D-2) receptors (setting [2]) was 2530 ± 160 nM. `C=CCCN1C2CCC1c1c([nH]c3ccccc13)C2` (centres unmarked) [1 H H (CH2)2 CHCH2 2]: in test [1] (setting [3]), the inhibition at 1 µM is 12.3%. Moreover, on dopamine (D-2) receptors (setting [2]), the Ki was found to be 710 nM. For `c1ccc(C(CCN2C3CCC2c2c([nH]c4ccccc24)C3)c2ccccc2)cc1` (centres unmarked) [1 H H (CH2)2 CHPh2 2], in that order: 27.3% and 4520 nM.

On to `Fc1ccc(CCCCN2C3CCC2c2c([nH]c4ccccc24)C3)cc1` (centres unmarked) [1 H H (CH2)4 4-FPh 2], for which the Ki worked out at 22.1 nM in test [1] and 1160 nM at dopamine (D-2) receptors (setting [5]). Consider `CCCN1C2CCC1c1c([nH]c3ccccc13)C2` (centres unmarked) [1 H H (CH2)2 CH3 2], for which the Ki at dopamine (D-2) receptors (setting [2]) came to 14400 ± 4400 nM. As to `Fc1ccc2[nH]c3c(c2c1)C1CCC(C3)N1CCCc1cccnc1` (centres unmarked) [4 F H (CH2)3 3-pyridyl 2], the inhibition at 1 µM in test [1] (setting [3]) worked out at 0%. In addition, the Ki at dopamine (D-2) receptors (setting [2]) came to 12200 ± 4700 nM.

On to `Clc1ccc(OCCN2C3CCC2c2c([nH]c4ccccc24)C3)cc1Cl` (centres unmarked) [7 H H (CH2)2 O-3,4-Cl2 Ph 2], for which the inhibition at 1 µM in test [1] (setting [3]) is 48.9%. Also, the Ki on dopamine (D-2) receptors (setting [2]) was found to be 650 nM. Consider `c1ccc(CCCCN2C3CCC2c2c([nH]c4ccccc24)C3)cc1` (centres unmarked) [1 H H (CH2)4 Ph 2], for which the Ki amounted to 56.5 nM in test [1] and 720 nM at dopamine (D-2) receptors (setting [6]).

As to `O=C1CC2(CCCC2)CC(=O)N1CCCCN1C2CCC1c1c([nH]c3ccccc13)C2` (centres unmarked) [1 H H (CH2)4 [drawing 3] 2], in test [1] (setting [3]), the inhibition at 1 µM came to 12%. On dopamine (D-2) receptors (setting [6]), this compound showed a Ki of 2380 ± 560 nM. Regarding `c1ccc(CN2C3CCC2c2c([nH]c4ccccc24)C3)cc1` (centres unmarked) [1 H H CH2 Ph 2], the inhibition at 1 µM in test [1] (setting [3]) worked out at 22.4%. The Ki on dopamine (D-2) receptors (setting [2]) is 3650 nM. For `c1ccc(CCN2C3CCC2c2c(n(Cc4ccccc4)c4ccccc24)C3)cc1` (centres unmarked) [5 H Bn (CH2)2 Ph 2] the same measures were 23.3% and 1620 nM. For the compound `c1ccc(CCCN2C3CCC2c2c([nH]c4ccccc24)C3)cc1` (centres unmarked) [1 H H (CH2)3 Ph 2], the Ki in test [1] came out at 106 nM; on dopamine (D-2) receptors (setting [2]), 2600 nM. In the case of `Cn1c2c(c3ccccc31)C1CCC(C2)N1CCCCc1ccccc1` (centres unmarked) [5 H CH3 (CH2)4 Ph 2], the inhibition at 1 µM in test [1] (setting [3]) was 49%. In addition, the Ki at dopamine (D-2) receptors (setting [2]) worked out at 1820 ± 80 nM. For `Fc1ccc2[nH]c3c(c2c1)C1CCC(C3)N1Cc1ccccc1I` (centres unmarked) [4 F H CH2 2-IPh 2] the same measures were 0% and 531000 nM. For `C(=C\c1ccccc1)/CN1C2CCC1c1c([nH]c3ccccc13)C2` (centres unmarked) [1 H H E-CH2 CHCH Ph 2] the same measures were 36.6% and 2460 nM. For `CN1C2CCC1c1c([nH]c3ccccc13)C2` (centres unmarked) [3 H H -- CH3 2], in that order: 26.4% and 16700 ± 6000 nM.
